Reference: patent US11046714B2, “2,2-difluorodioxolo A2A receptor antagonists” (Merck Sharp & Dohme Corp., priority 2013, dated 2021)

Target: human A2A receptor (Homo sapiens (Human), UniProt P29274)
Test: competition binding assay using Scintillation Proximity technology
Conditions: membranes from CHO-K1 cells expressing the human A2a receptor; 2.0 nM tritiated compound; Cheng-Prusoff
Method: The utility of the compounds in accordance with the present invention as A2A receptor antagonists may be readily determined without undue experimentation by methodologies well known in the art, including by a competition binding assay using Scintillation Proximity technology. Briefly, membranes from CHO-K1 cells expressing the human A2A receptor are incubated with a test compound at various concentrations, e.g., ranging from 3000 nM to 0.15 nM, in a reaction mixture also containing a tritiated form of 5-amino-7-[2-phenethyl]-2-(furan-2-yl)-7H-pyrazolo[4,3-e][1,2,4]triazolo[1,5-c]pyrimidine (the tritiated compound) and wheatgerm agglutin-coated yttrium silicate SPA beads at room temperature. The beads are then allowed to settle to the bottom of the wells, after which the membrane-associated radioactivity is determined by scintillation counting in a microplate reader. Ki values can be determined using the Cheng-Prusoff equation.
Thus, 1.0 μg of membranes from CHO-K1 cells expressing the human A2a receptor were incubated with a compound of the invention at concentrations ranging from 3000 nM to 0.15 nM in a reaction mixture also containing 2.0 nM of a tritiated form of 5-amino-7-[2-phenethyl]-2-(furan-2-yl)-7H-pyrazolo[4,3-e][1,2,4]triazolo[1,5-c]pyrimidine (the tritiated compound) and 100 μg of wheatgerm agglutin-coated yttrium silicate SPA beads for one hour at room temperature with agitation. The beads were then allowed to settle to the bottom of the wells for 1 hr, after which the membrane-associated radioactivity was determined by scintillation counting in a TopCount microplate reader. Ki values were determined using the Cheng-Prusoff equation.
Summary of Materials and Methods Used in A2a Activity Determination:
• Membranes from CHO-K1 cells expressing the human Adenosine2A receptor (Perkin-Elmer #RBHA2AM400UA). • The tritiated compound was prepared according to published methods. • Wheatgerm agglutinin-coated yttrium silicate SPA beads (GE Healthcare #RPNQ0023). Dilute to 25 mg/ml in Assay Buffer. • Assay Buffer: Dulbecco's calcium and magnesium free phosphate buffered saline+10 mM MgCl2 • Adenosine deaminase (ADA) from calf intestine, 10 mg/2 ml (Roche #10 102 105 001). • DMSO • A2a antagonist standard (9-chloro-1-(2-furanyl)-[1,2,4]triazolo[1,5-c]quinazolin-5-amine from Tocris Bioscience) Compound Dilution • Make eight 1:3 serial dilutions in 100% DMSO from a 3 mM compound stock. • Transfer 50 nL of compound into a 384-well OptiPlate (Perkin Elmer). • Typically, final concentrations of compound used in the assay ranged from 3000 nM to 0.152 nM. Radioisotope • Dilute a solution of the tritiated compound to 5.0 nM in assay buffer. This is a 2.5× solution. The final concentration in the assay is 2.0 nM. Calculate the concentration by counting two 5 μL aliquots. Membrane Preparation • Use 1.0 μg of membrane/well. Dilute membranes to 33 μg/mL in assay buffer. Treat with 20 μg/mL ADA for 15 minutes at room temperature to degrade endogenous adenosine. Membrane-Bead Mixture • Use 100 μg/well wheatgerm agglutinin-coated yttrium silicate SPA beads. • Mix ADA-treated membranes and SPA beads together for 30 min prior to assay. Assay Assembly • To the Perkin-Elmer Optiplate-384 containing the compound titration add 20 μL of 2.5× solution of the tritiated compound and 30 μL of the membrane-bead mixture. Incubate for one hour at room temperature with agitation. • Include total binding (assay buffer+1% DMSO) and non-specific binding (CGS 15943, 1 μM) wells. Counting • Allow the beads to settle for one hour. • Count in TopCount. Calculations • A curve fitting program (i.e., Prism, Activity Base, Chemcart) is used to determine the EC50. The Ki value is calculated using the Cheng-Prusoff equation. Ki=EC50/(1+(radioligand concentration/Kd))

human A2A receptor, sequence (P29274 whole entry): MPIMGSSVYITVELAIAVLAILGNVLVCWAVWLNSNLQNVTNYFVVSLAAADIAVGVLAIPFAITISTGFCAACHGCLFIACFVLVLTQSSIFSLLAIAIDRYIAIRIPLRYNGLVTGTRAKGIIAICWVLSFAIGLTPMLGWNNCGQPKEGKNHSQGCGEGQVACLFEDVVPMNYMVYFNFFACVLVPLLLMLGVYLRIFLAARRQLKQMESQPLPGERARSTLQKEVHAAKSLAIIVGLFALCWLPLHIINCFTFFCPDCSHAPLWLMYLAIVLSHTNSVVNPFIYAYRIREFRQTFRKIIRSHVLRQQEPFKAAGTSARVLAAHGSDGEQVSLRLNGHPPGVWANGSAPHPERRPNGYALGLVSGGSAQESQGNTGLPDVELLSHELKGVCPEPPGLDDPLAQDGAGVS

Compound	Ki
Nc1nc2c3c(ccc2c2nc(Cc4cccnc4Cl)nn12)OC(F)(F)O3 [Example 3, 8-((2-chloropyridin-3-yl)methyl)-2,2-difluoro-[1,3]dioxolo[4,5-h][1,2,4]triazolo[1,5-c]quinazolin-5-amine]	2.9 nM
Nc1nc2c3c(ccc2c2nc(Cc4cccnc4N4CC[C@@H](c5ccc(F)cc5)C4)nn12)OC(F)(F)O3 [Example 4, (S)-2,2-difluoro-8-((2-(3-(4-fluorophenyl)pyrrolidin-1-yl)pyridin-3-yl)methyl)-[1,3]dioxolo[4,5-h][1,2,4]triazolo[1,5-c]quinazolin-5-amine]	8.3 nM
Nc1nc2c3c(ccc2c2nc(Cc4cccnc4N4CC[C@@H](c5ccc(C(F)(F)F)cc5)C4)nn12)OC(F)(F)O3 [Example 5, (S)-2,2-difluoro-8-((2-(3-(4-(trifluoromethyl)phenyl)pyrrolidin-1-yl)pyridin-3-yl)methyl)-[1,3]dioxolo[4,5-h][1,2,4]triazolo[1,5-c]quinazolin-5-amine]	15 nM
Nc1nc2c3c(ccc2c2nc(CCN4Cc5cccnc5C4)nn12)OC(F)(F)O3 [Example 6]	6.5 nM
Nc1nc2c3c(ccc2c2nc(CCN4Cc5ccc(C(F)(F)F)cc5C4)nn12)OC(F)(F)O3 [Example 7, 2,2-difluoro-8-{2-[5-(trifluoromethyl)-1,3-dihydro-2H-isoindol-2-yl]ethyl}[1,3]-dioxolo[4,5-h][1,2,4]triazolo [1,5-c]quinazolin-5-amine]	3.1 nM
Nc1nc2c3c(ccc2c2nc(CCN4Cc5ccc(F)cc5C4)nn12)OC(F)(F)O3 [Example 8, 2,2-difluoro-8-[2-(5-fluoro-1,3-dihydro-2H-isoindol-2-yl)ethyl][1,3]dioxolo[4,5-h][1,2,4]triazolo[1,5-c]quinazolin-5-amine]	2.1 nM
Nc1nc2c3c(ccc2c2nc(CCN4Cc5cnc(C(F)(F)F)nc5C4)nn12)OC(F)(F)O3 [Example 9, 2,2-difluoro-8-{2-[2-(trifluoromethyl)-5,7-dihydro-6H-pyrrolo[3,4-d]pyrimidin-6-yl]ethyl}[1,3]dioxolo[4,5-h][1,2,4]triazolo[1,5-c]quinazolin-5-amine]	3.8 nM
CCc1nnc2n1CCN(CCc1nc3c4ccc5c(c4nc(N)n3n1)OC(F)(F)O5)C2 [Example 10, 8-[2-(3-ethyl-5,6-dihydro[1,2,4]triazolo[4,3-a]pyrazin-7(8H)-yl)ethyl]-2,2-difluoro[1,3]dioxolo[4,5-h][1,2,4]triazolo[1,5-c]quinazolin-5-amine]	1.6 nM
Nc1nc2c3c(ccc2c2nc(CCN4Cc5ccncc5C4)nn12)OC(F)(F)O3 [Example 11, 8-[2-(1,3-dihydro-2H-pyrrolo[3,4-c]pyridin-2-yl)ethyl]-2,2-difluoro[1,3] dioxolo[4,5-h][1,2,4]triazolo [1,5-c]quinazolin-5-amine]	2.1 nM
Cc1nc2c(o1)CN(CCc1nc3c4ccc5c(c4nc(N)n3n1)OC(F)(F)O5)CC2 [Example 12, 2,2-difluoro-8-[2-(2-methyl-6,7-dihydro[1,3]oxazolo[5,4-c]pyridin-5(4H)-yl)ethyl][1,3] dioxolo[4,5-h][1,2,4]triazolo [1,5-c]quinazolin-5-amine]	1.5 nM
Cc1nc2c(s1)CCN(CCc1nc3c4ccc5c(c4nc(N)n3n1)OC(F)(F)O5)C2 [Example 13, 2,2-difluoro-8-[2-(2-methyl-6,7-dihydro[1,3]thiazolo[4,5-c]pyridin-5(4H)-yl)ethyl][1,3] dioxolo[4,5-h][1,2,4]triazolo [1,5-c]quinazolin-5-amine]	1.8 nM
Nc1nc2c3c(ccc2c2nc(CCN4CCc5nc(C6CC6)oc5C4)nn12)OC(F)(F)O3 [Example 14, 8-[2-(2-cyclopropyl-6,7-dihydro[1,3]oxazolo[5,4-c]pyridin-5(4H)-yl)ethyl]-2,2-difluoro[1,3]dioxolo[4,5-h][1,2,4]triazolo[1,5-c]quinazolin-5-amine]	0.9 nM
Nc1nc2c3c(ccc2c2nc(CCN4CC(F)C4)nn12)OC(F)(F)O3 [Example 15, 2,2-difluoro-8-[2-(3-fluoroazetidin-1-yl)ethyl] [1,3]dioxolo[4,5-h][1,2,4] triazolo[1,5-c]quinazolin-5-amine]	2.5 nM
